As usually defined, the IC50 is the midpoint of a concentration-inhibition curve. A higher IC50 goes with weaker potency in that assay.

The values that follow come from patent US7589089B2, “Inhibitors for GlyT-1” (Hoffmann-La Roche Inc., priority 2006, dated 2009).

Structures are written as SMILES.

The assay concerns the target T1, mGlyT-1b (Mus musculus, UniProt P28571).
T1 construct: host or cells: Flp-in-CHO
T1 sequence (P28571 1-651 isoform P28571-2): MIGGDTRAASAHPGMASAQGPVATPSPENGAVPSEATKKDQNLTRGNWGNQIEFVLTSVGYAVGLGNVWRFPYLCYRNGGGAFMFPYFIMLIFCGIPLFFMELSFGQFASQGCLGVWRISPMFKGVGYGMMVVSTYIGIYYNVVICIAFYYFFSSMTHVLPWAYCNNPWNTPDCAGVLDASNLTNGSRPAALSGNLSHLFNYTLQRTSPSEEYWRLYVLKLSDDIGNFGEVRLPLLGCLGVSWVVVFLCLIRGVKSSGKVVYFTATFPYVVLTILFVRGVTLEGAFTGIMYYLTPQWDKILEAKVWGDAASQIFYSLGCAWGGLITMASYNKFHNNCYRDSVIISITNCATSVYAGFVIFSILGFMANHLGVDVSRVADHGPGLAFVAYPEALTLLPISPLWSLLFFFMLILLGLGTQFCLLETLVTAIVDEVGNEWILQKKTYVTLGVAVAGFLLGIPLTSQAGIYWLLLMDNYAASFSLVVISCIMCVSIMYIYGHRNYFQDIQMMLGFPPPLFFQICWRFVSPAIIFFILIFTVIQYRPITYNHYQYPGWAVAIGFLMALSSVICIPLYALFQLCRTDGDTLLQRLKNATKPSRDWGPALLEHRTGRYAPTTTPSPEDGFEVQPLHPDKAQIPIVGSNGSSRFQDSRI
In words: Glycine Uptake Inhibition Assay (mGlyT-1b). The format is cell-based. How it is done:
DMEM complete medium: Nutrient mixture F-12 (Gibco Life-technologies), fetal bovine serum (FBS) 5%, (Gibco life technologies), Penicillin/Streptomycin 1% (Gibco life technologies), Hygromycin 0.6 mg/ml (Gibco life technologies), Glutamine 1 mM Gibco life technologies)
Uptake buffer (UB): 150 mM NaCl, 10 mM Hepes-Tris, pH 7.4, 1 mM CaCl2, 2.5 mM KCl, 2.5 mM MgSO4, 10 mM (+) D-glucose.
Flp-in™-CHO (Invitrogen Cat n° R758-07) cells stably transfected with mGlyT1b cDNA.
Glycine Uptake Inhibition Assay (mGlyT-1b)
On day 1 mammalian cells, (Flp-in™-CHO), transfected with mGlyT-1b cDNA, were plated at the density of 40,000 cells/well in complete F-12 medium, without hygromycin in 96-well culture plates. On day 2, the medium was aspirated and the cells were washed twice with uptake buffer (UB). The cells were then incubated for 20 min at 22° C. with either (i) no potential competitor, (ii) 10 mM non-radioactive glycine, (iii) a concentration of a potential inhibitor. A range of concentrations of the potential inhibitor was used to generate data for calculating the concentration of inhibitor resulting in 50% of the effect (e.g. IC50, the concentration of the competitor inhibiting glycine uptake of 50%). A solution was then immediately added containing [^3H]-glycine 60 nM (11-16 Ci/mmol) and 25 μM non-radioactive glycine. The plates were incubated with gentle shaking and the reaction was stopped by aspiration of the mixture and washing (three times) with ice-cold UB. The cells were lysed with scintillation liquid, shaken 3 hours and the radioactivity in the cells was counted using a scintillation counter.
The compound `O=C(CN(Cc1ccccc1Cl)C(=O)c1ccc(Cl)cc1)Nc1cccc(C(F)(F)F)c1` [Example 53, 4-Chloro-N-(2-chloro-benzyl)-N-[(3-trifluoromethyl-phenylcarbamoyl)-methyl]-benzamide] had an IC50 of 241 nM.
Regarding `N#Cc1cccc(CN(CC(=O)Nc2cccc(Cl)c2)C(=O)c2ccc(Cl)cc2)c1` [Example 100, 4-Chloro-N-[(3-chloro-phenylcarbamoyl)-methyl]-N-(3-cyano-benzyl)-benzamide], the concentration for half-maximal inhibition (IC50) worked out at 192 nM.
As for `O=C(CN(Cc1c(F)cccc1F)C(=O)c1ccc(OC(F)(F)F)cc1)Nc1ccc(F)c(Cl)c1` [Example 71, N-[(3-Chloro-4-fluoro-phenylcarbamoyl)-methyl]-N-(2,6-difluoro-benzyl)-4-trifluoromethoxy-benzamide], the figure is 107 nM; as for `COc1ccc(C(=O)N(CC(=O)Nc2ccc(F)c(Cl)c2)c2ccccc2)cc1` [Example 108, N-[(3-Chloro-4-fluoro-phenylcarbamoyl)-methyl]-4-methoxy-N-phenyl-benzamide], 182 nM; as for `O=C(CN(Cc1ccccc1Cl)C(=O)c1ccc(F)cc1)Nc1cccc(C(F)(F)F)c1` [Example 55, N-(2-Chloro-benzyl)-4-fluoro-N-[(3-trifluoromethyl-phenylcarbamoyl)-methyl]-benzamide], 97 nM.
Compound `O=C(CN(Cc1cccc(Cl)c1)C(=O)c1ccc(Cl)cc1)Nc1cccc(Cl)c1` [Example 105, 4-Chloro-N-(3-chloro-benzyl)-N-[(3-chloro-phenylcarbamoyl)-methyl]-benzamide] returned an IC50 of 21 nM.
Turning to `O=C(CN(C(=O)c1ccccc1F)c1ccccc1)Nc1ccc(Cl)c(Cl)c1` [Example 39, N-[(3,4-Dichloro-phenylcarbamoyl)-methyl]-2-fluoro-N-phenyl-benzamide], the IC50 turned out to be 291 nM.
For the compound `O=C(CN(Cc1ccccc1Cl)C(=O)c1ccc(OC(F)(F)F)cc1)Nc1ccc(F)c(Cl)c1` [Example 75, N-(2-Chloro-benzyl)-N-[(3-chloro-4-fluoro-phenylcarbamoyl)-methyl]-4-trifluoromethoxy-benzamide], the IC50 was determined as 259 nM.
As for `O=C(CN(Cc1cc(F)cc(F)c1)C(=O)c1cc2ccccc2s1)Nc1cccc(F)c1` [Example 63, Benzo[b]thiophene-2-carboxylic acid (3,5-difluoro-benzyl)-[(3-fluoro-phenylcarbamoyl)-methyl]-amide], the figure is 70 nM; as for `O=C(CN(Cc1c(F)cccc1F)C(=O)c1ccc(Cl)cc1)Nc1cccc(Cl)c1` [Example 1, 4-Chloro-N-[(3-chloro-phenylcarbamoyl)-methyl]-N-(2,6-difluoro-benzyl)-benzamide], 52 nM.
Turning to `COc1ccc(C(=O)N(CC(=O)Nc2cccc(Cl)c2)Cc2cc(Cl)cc(Cl)c2)cc1` [Example 12, N-[(3-Chloro-phenylcarbamoyl)-methyl]-N-(3,5-dichloro-benzyl)-4-methoxy-benzamide], half-maximal inhibition (IC50) was put at 243 nM.
`O=C(CN(Cc1ccccc1F)C(=O)c1ccc(Cl)nc1)Nc1cccc(Cl)c1` [Example 120, 6-Chloro-N-[(3-chloro-phenylcarbamoyl)-methyl]-N-(2-fluoro-benzyl)-nicotinamide] showed an IC50 of 182 nM.
Take `COc1ccc(C(=O)N(CC(=O)Nc2ccc(Cl)c(Cl)c2)C2CCCC2)cc1` [Example 126, N-Cyclopentyl-N-[(3,4-dichloro-phenylcarbamoyl)-methyl]-4-methoxy-benzamide]: the IC50 came to 357 nM.
In turn, `O=C(CN(Cc1ccccc1)C(=O)c1ccc(Cl)cc1)Nc1cccc(Cl)c1` [Example 16, N-Benzyl-4-chloro-N-[(3-chloro-phenylcarbamoyl)-methyl]-benzamide] registered an IC50 of 156 nM.
On to `O=C(CN(C(=O)COc1ccc(Cl)cc1)c1ccccc1)Nc1ccc(Cl)c(Cl)c1` [Example 118, 2-(4-Chloro-phenoxy)-N-[(3,4-dichloro-phenylcarbamoyl)-methyl]-N-phenyl-acetamide], for which the IC50 worked out at 259 nM.
Take `COc1ccc(C(=O)N(CC(=O)Nc2ccc(C)c(Cl)c2)c2ccccc2)cc1` [Example 110, N-[(3-Chloro-4-methyl-phenylcarbamoyl)-methyl]-4-methoxy-N-phenyl-benzamide]: the midpoint of inhibition, the IC50, lay at 369 nM.
`O=C(CN(Cc1ccc(F)c(F)c1)C(=O)c1ccc(Cl)cc1)Nc1cccc(Cl)c1` [Example 2, 4-Chloro-N-[(3-chloro-phenylcarbamoyl)-methyl]-N-(3,4-difluoro-benzyl)-benzamide] registered a half-maximal inhibitory concentration (IC50) of 265 nM.
`O=C(CN(Cc1ccccc1Cl)C(=O)c1cc2ccccc2s1)Nc1cccc(C(F)(F)F)c1` [Example 51, Benzo[b]thiophene-2-carboxylic acid (2-chloro-benzyl)-[(3-trifluoromethyl-phenylcarbamoyl)-methyl]-amide] registered an IC50 of 60 nM.
With `O=C(CN(Cc1cc(F)cc(F)c1)C(=O)c1ccc(OC(F)(F)F)cc1)Nc1cccc(F)c1` [Example 65, N-(3,5-Difluoro-benzyl)-N-[(3-fluoro-phenylcarbamoyl)-methyl]-4-trifluoromethoxy-benzamide], the IC50 was 278 nM.
The compound `O=C(CN(Cc1cc(F)cc(F)c1)C(=O)c1ccc(OC(F)(F)F)cc1)Nc1ccc(F)c(Cl)c1` [Example 90, N-[(3-Chloro-4-fluoro-phenylcarbamoyl)-methyl]-N-(3,5-difluoro-benzyl)-4-trifluoromethoxy-benzamide] came in with an IC50 of 288 nM. This IC50 and that of the compound before are within 1.5-fold of each other.
`O=C(CN(Cc1cccs1)C(=O)c1ccc(Cl)cc1)Nc1cccc(Cl)c1` [Example 17, 4-Chloro-N-[(3-chloro-phenylcarbamoyl)-methyl]-N-thiophen-2-ylmethyl-benzamide] returned an IC50 of 77 nM.
In turn, `O=C(CN(C(=O)c1ccc(C(F)(F)F)nc1)c1ccccc1)Nc1ccc(Cl)c(Cl)c1` [Example 37, N-[(3,4-Dichloro-phenylcarbamoyl)-methyl]-N-phenyl-6-trifluoromethyl-nicotinamide] had an IC50 of 154 nM.
As for `O=C(CN(Cc1ccc(F)cc1F)C(=O)c1ccc(Cl)cc1)Nc1cccc(Cl)c1` [Example 5, 4-Chloro-N-[(3-chloro-phenylcarbamoyl)-methyl]-N-(2,4-difluoro-benzyl)-benzamide], the IC50 is 160 nM. The IC50 values of the last two compounds are within 1.5-fold of each other.
As for `COc1ccc(C(=O)N(CC(=O)Nc2cccc(C(F)(F)F)c2)c2ccccc2)cc1` [Example 27, 4-Methoxy-N-phenyl-N-[(3-trifluoromethyl-phenylcarbamoyl)-methyl]-benzamide], the figure is 148 nM; as for `O=C(CN(Cc1ccccc1Cl)C(=O)c1cc2ccccc2s1)Nc1ccc(F)c(Cl)c1` [Example 72, Benzo[b]thiophene-2-carboxylic acid (2-chloro-benzyl)-[(3-chloro-4-fluoro-phenylcarbamoyl)-methyl]-amide], 205 nM.
`CC(C)(C)CCN(CC(=O)Nc1cccc(Cl)c1)C(=O)c1ccc(Cl)cc1` [Example 96, 4-Chloro-N-[(3-chloro-phenylcarbamoyl)-methyl]-N-(3,3-dimethyl-butyl)-benzamide] had an IC50 of 359 nM.
The result for `COc1ccc(C(=O)N(CC(=O)Nc2cccc(Cl)c2)c2ccccc2)cc1` [Example 28, N-[(3-Chloro-phenylcarbamoyl)-methyl]-4-methoxy-N-phenyl-benzamide] reads 267 nM; that for `O=C(CN(Cc1cccc(F)c1F)C(=O)c1ccc(Cl)cc1)Nc1cccc(Cl)c1` [Example 4, 4-Chloro-N-[(3-chloro-phenylcarbamoyl)-methyl]-N-(2,3-difluoro-benzyl)-benzamide], 74 nM.
For the compound `O=C(CN(Cc1ccccc1Cl)C(=O)c1cc2ccccc2s1)Nc1cccc(F)c1` [Example 57, Benzo[b]thiophene-2-carboxylic acid (2-chloro-benzyl)-[(3-fluoro-phenylcarbamoyl)-methyl]-amide], the half-maximal inhibitory concentration (IC50) came out at 88 nM.
In turn, `N#Cc1cccc(C(=O)N(CC(=O)Nc2ccc(Cl)c(Cl)c2)c2ccccc2)c1` [Example 31, 3-Cyano-N-[(3,4-dichloro-phenylcarbamoyl)-methyl]-N-phenyl-benzamide] registered an IC50 of 350 nM.
